# Source: US4032659A (priority 1975, dated 1977)
# Where two headings read alike, the source gives them in different places.
# Tests used:
# [1] = test system: Influenza B Massachusetts virus; test: Chemoprophylaxis of Influenza B Massachusetts virus infection in mice; format: in vivo, mouse; details: oral
# Protocol: The activity of four compounds on Influenza B Mass. was tested in mice.
# A portion of a commercially available sample of amantadine was recrystallized from isopropanol. The activity of the material against Influenza B Mass. was tested for the sample as obtained, the recrystallized portion, and the mother liquor obtained from recrystallizing the portion.
# virus infections = test: Antiviral screening program, several viruses; details: mouse, in vivo
# [2] = test system: Influenza Ann Arbor virus; test: Chemoprophylaxis of Influenza Ann Arbor (A1) virus infection in mice; format: in vivo, mouse
# Influenza PR 8 virus = test: Chemoprophylaxis of Influenza PR 8 virus infection in mice; format: in vivo, mouse; details: oral
# Herpes virus = format: in vivo, mouse; details: oral
# [3] = subcutaneous, total dose 500 μg
# [4] = subcutaneous, total dose .00005 μg
# [5] = subcutaneous, total dose .0005 μg
# [6] = subcutaneous, total dose .005 μg
# [7] = subcutaneous, total dose .05 μg
compound,measurement,setting,value
"N=C(N)NN [aminoguanidine, bicarbonate]",Survivors,[1]; total dose 40pg,0
same,Survivors,[1]; total dose 4ng,0
same,Survivors,[1]; total dose 40ng,1
same,Survivors,[1]; total dose 400ng,1
same,Survivors,[1]; total dose 4μg,1
"NC12CC3CC(CC(C3)C1)C2 [Recrystallized amantadine, amantadine, reference compound]",No. animals surviving after 11 days,[1]; total dose 60 ng,4
same,Survivors,[1]; total dose 60 ng,2
same,No. animals surviving after 11 days,[1]; total dose 600 ng,3
same,Survivors,[1]; total dose 600 ng,3
same,No. animals surviving after 11 days,[1]; total dose 6 μg,5
same,Survivors,[1]; total dose 6 μg,5
same,No. animals surviving after 11 days,[1]; total dose 60 μg,5
same,Survivors,[1]; total dose 60 μg,2
same,No. animals surviving after 11 days,[1]; total dose 600 μg,3
same,Survivors,[1]; total dose 600 μg,2
same,No. animals surviving after 11 days,[1]; total dose 6 mg,6
same,Survivors,[1]; total dose 6 mg,4
"NN [hydrazine, hydrate]",activity (in words),virus infections,"active on Influenza PR 8, Vaccinia in the mouse tail, Herpes in eggs, Herpes in mice, and Influenza Ann Arbor"
same,No. animals surviving after 5 days,"[2]; oral, total dose 5 μg",4
same,Survivors,"[2]; oral, total dose 5 μg",0
same,No. animals surviving after 5 days,"[2]; oral, total dose 50 μg",4
same,Survivors,"[2]; oral, total dose 50 μg",0
same,No. animals surviving after 5 days,"[2]; oral, total dose 500 μg",5
same,Survivors,"[2]; oral, total dose 500 μg",0
same,No. animals surviving after 5 days,"[2]; oral, total dose .00005 μg",6
same,Survivors,"[2]; oral, total dose .00005 μg",0
same,No. animals surviving after 5 days,"[2]; oral, total dose .0005 μg",6
same,Survivors,"[2]; oral, total dose .0005 μg",0
same,No. animals surviving after 5 days,"[2]; oral, total dose .005 μg",3
same,Survivors,"[2]; oral, total dose .005 μg",0
same,No. animals surviving after 5 days,"[2]; oral, total dose .05 μg",3
same,Survivors,"[2]; oral, total dose .05 μg",1
same,No. animals surviving after 5 days,"[2]; oral, total dose .5 μg",6
same,Survivors,"[2]; oral, total dose .5 μg",0
same,No. animals surviving after 5 days,"[2]; subcutaneous, total dose 5 μg",6
same,No. animals surviving after 7 days,"[2]; subcutaneous, total dose 5 μg",6
same,Survivors,"[2]; subcutaneous, total dose 5 μg, hydrate",3
same,No. animals surviving after 5 days,"[2]; subcutaneous, total dose 50 μg",4
same,No. animals surviving after 7 days,"[2]; subcutaneous, total dose 50 μg",7
same,No. animals surviving after 5 days,[2]; [3],3
same,No. animals surviving after 7 days,[2]; [3],6
same,Survivors,[2]; [3],0
same,No. animals surviving after 5 days,[2]; [4],1
same,No. animals surviving after 7 days,[2]; [4],1
same,Survivors,[2]; [4],0
same,No. animals surviving after 5 days,[2]; [5],7
same,No. animals surviving after 7 days,[2]; [5],5
same,No. animals surviving after 5 days,[2]; [6],4
same,No. animals surviving after 7 days,[2]; [6],3
same,No. animals surviving after 5 days,[2]; [7],6
same,No. animals surviving after 7 days,[2]; [7],4
same,No. animals surviving after 5 days,"[2]; subcutaneous, total dose .5 μg",5
same,No. animals surviving after 7 days,"[2]; subcutaneous, total dose .5 μg",7
same,No. animals surviving after 10 days,Influenza PR 8 virus; total dose 5 μg,1
same,Survivors,Influenza PR 8 virus; total dose 5 μg,0
same,No. animals surviving after 10 days,Influenza PR 8 virus; total dose 50 μg,1
same,Survivors,Influenza PR 8 virus; total dose 50 μg,0
same,No. animals surviving after 7 days,Influenza PR 8 virus; total dose .000005 μg,4
same,No. animals surviving after 7 days,Influenza PR 8 virus; total dose .00005 μg,0
same,No. animals surviving when 18/20 of controls are dead,Influenza PR 8 virus; total dose .00005 μg,4
same,No. animals surviving after 10 days,Influenza PR 8 virus; total dose .0005 μg,1
same,No. animals surviving when 18/20 of controls are dead,Influenza PR 8 virus; total dose .0005 μg,3
same,Survivors,"Influenza PR 8 virus; total dose .0005 μg, hydrate",1
same,No. animals surviving after 7 days,Influenza PR 8 virus; total dose .005 μg,5
same,No. animals surviving after 10 days,Influenza PR 8 virus; total dose .005 μg,3
same,No. animals surviving when 18/20 of controls are dead,Influenza PR 8 virus; total dose .005 μg,1
same,No. animals surviving after 10 days,Influenza PR 8 virus; total dose .05 μg,0
same,No. animals surviving when 18/20 of controls are dead,Influenza PR 8 virus; total dose .05 μg,1
same,No. animals surviving after 10 days,Influenza PR 8 virus; total dose .5 μg,1
same,No. animals surviving when 18/20 of controls are dead,Influenza PR 8 virus; total dose .5 μg,1
same,Survivors,Influenza PR 8 virus; total dose .5 μg,1
NNC(=S)NC12CC3CC(CC(C3)C1)C2,No. animals surviving when 18/20 of controls are dead,Herpes virus; total dose 4pg,1
same,Survivors,Herpes virus; total dose 4pg,1
same,No. animals surviving when 18/20 of controls are dead,Herpes virus; total dose 40pg,1
same,Survivors,Herpes virus; total dose 40pg,1
same,No. animals surviving when 18/20 of controls are dead,Herpes virus; total dose 400pg,3
same,Survivors,Herpes virus; total dose 400pg,3
same,No. animals surviving when 18/20 of controls are dead,Herpes virus; total dose 4ng,2
same,Survivors,Herpes virus; total dose 4ng,2
same,No. animals surviving when 18/20 of controls are dead,Herpes virus; total dose 40ng,2
same,Survivors,Herpes virus; total dose 40ng,2
same,No. animals surviving when 18/20 of controls are dead,Herpes virus; total dose 400ng,3
same,Survivors,Herpes virus; total dose 400ng,3
"NC12CC3CC(CC(C3)C1)C2 [Commercial amantadine, amantadine, reference compound]",No. animals surviving after 11 days,[1]; total dose 60 ng,3
same,Survivors,[1]; total dose 60 ng,0
same,No. animals surviving after 11 days,[1]; total dose 600 ng,3
same,Survivors,[1]; total dose 600 ng,3
same,No. animals surviving after 11 days,[1]; total dose 6 μg,7
same,Survivors,[1]; total dose 6 μg,5
same,No. animals surviving after 11 days,[1]; total dose 60 μg,3
same,Survivors,[1]; total dose 60 μg,2
same,No. animals surviving after 11 days,[1]; total dose 600 μg,5
same,Survivors,[1]; total dose 600 μg,5
same,No. animals surviving after 11 days,[1]; total dose 6 mg,4
same,Survivors,[1]; total dose 6 mg,2
"NC(=S)NN=C1CCCCC1 [Cyclohexanone, thiosemicarbazone]",No. animals surviving after 11 days,[1]; total dose 5pg,7
same,No. animals surviving when 16/20 of controls are dead,[1]; total dose 5pg,5
same,Survivors,[1]; total dose 5pg,5
same,No. animals surviving after 11 days,[1]; total dose 50pg,4
same,No. animals surviving when 16/20 of controls are dead,[1]; total dose 50pg,3
same,Survivors,[1]; total dose 50pg,2
same,No. animals surviving after 11 days,[1]; total dose 500pg,2
same,No. animals surviving when 16/20 of controls are dead,[1]; total dose 500pg,2
same,Survivors,[1]; total dose 500pg,2
same,No. animals surviving after 11 days,[1]; total dose 5ng,3
same,No. animals surviving when 16/20 of controls are dead,[1]; total dose 5ng,2
same,Survivors,[1]; total dose 5ng,2
same,No. animals surviving after 11 days,[1]; total dose 50ng,7
same,No. animals surviving when 16/20 of controls are dead,[1]; total dose 50ng,7
same,Survivors,[1]; total dose 50ng,5
same,No. animals surviving after 11 days,[1]; total dose 500ng,2
same,No. animals surviving when 16/20 of controls are dead,[1]; total dose 500ng,1
same,Survivors,[1]; total dose 500ng,1
